Test results taken from ChEMBL document CHEMBL3044655, “QSAR studies of 7-methyljuglone derivatives as antitubercular agents” (Med Chem Res, 2012).

Test system: Mycobacterium tuberculosis
Assay: Antitubercular activity against Mycobacterium tuberculosis H37Rv by BACTEC method
Format: functional, organism-based

Structure (SMILES) | IC50 (read-out: IC50) [nM] | IC50 (read-out: pIC50 (converted)) [nM]
CC(=O)Oc1cc(OC(C)=O)c2c(OC(C)=O)c(C)c(C)c(Cl)c2c1OC(C)=O | 7.7 | 7.7
COc1c(OC)c(OC(C)=O)c2c(OC(C)=O)cc(OC(C)=O)c(OC(C)=O)c2c1F | 3.9 | 3.86
CC(=O)Oc1cc(OC(C)=O)c2c(OC(C)=O)ccc(F)c2c1OC(C)=O | 7.9 | 7.97
CC(=O)Oc1cc(OC(C)=O)c2c(OC(C)=O)ccc(Cl)c2c1OC(C)=O | 12.4 | 12.2
CC(=O)Oc1cc(OC(C)=O)c2c(OC(C)=O)c(C)c(C)c(F)c2c1OC(C)=O | 3.3 | 3.34
Cc1ccc2c(c1O)C(=O)C=CC2=O | 3.1 | 3.1
CC(=O)Oc1cc(C)cc2c1C(=O)C=CC2=O | 6 | 6
CC(=O)Oc1cc(C)c(Cl)c2c1C(=O)C=CC2=O | 6.3 | 6.3
COc1cc(C)cc2c1C(=O)C=CC2=O | 5.8 | 5.8
CC(=O)Oc1cc(OC(C)=O)c2c(OC(C)=O)c(C)cc(Cl)c2c1OC(C)=O | 149 | 149
COc1cc(C)c(Cl)c2c1C(=O)C=CC2=O | 7.7 | 7.7
CCOc1c(C)cc(Cl)c2c1C(=O)C=CC2=O | 12.5 | 12.5
CCOc1cc(C)cc2c1C(=O)C=CC2=O | 6.3 | 6.3
CCOc1cc(C)c(Cl)c2c1C(=O)C=CC2=O | 36.1 | 36.1
CC(=O)Oc1cc(OC(C)=O)c2c(OC(C)=O)cc(C)cc2c1OC(C)=O | 17.2 | 17.2
COc1c(C)cc(Cl)c2c1C(=O)C=CC2=O | 8 | 8
CC(=O)Oc1cc(OC(C)=O)c2c(OC(C)=O)cc(C)c(Cl)c2c1OC(C)=O | 27.8 | 27.8
CC(=O)Oc1c(C)cc(Cl)c2c1C(=O)C=CC2=O | 21.1 | 21.1
Cc1cc(O)c2c(c1)C(=O)C(O)=CC2=O | 3.1 | 3.1
Cc1cc(O)c2c(c1Br)C(=O)C=CC2=O [5-BROMO-8-HYDROXY-6-METHYLNAPHTHALENE-1,4-DIONE] | 3.6 | 3.6
Cc1cc(O)c2c(c1Cl)C(=O)C=CC2=O [5-CHLORO-8-HYDROXY-6-METHYLNAPHTHALENE-1,4-DIONE] | 2.5 | 2.5
Cc1cc(O)c2c(c1F)C(=O)C=CC2=O [5-FLUORO-8-HYDROXY-6-METHYLNAPHTHALENE-1,4-DIONE] | 7.6 | 7.6
Cc1cc(Cl)c2c(c1O)C(=O)C=CC2=O [8-CHLORO-5-HYDROXY-6-METHYLNAPHTHALENE-1,4-DIONE] | 4.6 | 4.6
O=C1C=CC(=O)c2c(O)cccc21 [JUGLONE] | 1.2 | 1.2
Cc1cc(O)c2c(c1)C(=O)C=CC2=O [RAMENTACEONE] | 15.1 | 15.1
